Assay results published in US10188756B2, “Imaging histone deacetylases with a radiotracer using positron emission tomography” (THE GENERAL HOSPITAL CORPORATION, priority 2013, dated 2019).
“Also recorded” adds a separate entry of the source.

Key:
[1] = biological target: HDAC1 (Homo sapiens (Human), UniProt Q13547); experiment: HDAC inhibition assay; settings: read-out: IC50 HDAC1
Experimental: (§3) All histone deacetylases were purchased from BPS Bioscience. […] All the other reagents were purchased from Sigma-Aldrich. Caliper EZ reader II system was used to collect all data. […] Purified HDACs were incubated with 2 μM carboxyfluorescein (FAM)-labeled acetylated or trifluoroacetylated peptide substrate (Broad Substrate A and B respectively) and test compound for 60 minutes at room temperature, in HDAC assay buffer that contained 50 mM HEPES (pH 7.4), 100 mM KCl, 0.01% BSA and 0.001% Tween-20. […] Substrate and product were separated electrophoretically and fluorescence intensity in the substrate and product peaks was determined and analyzed by Labchip EZ Reader. The reactions were performed in duplicate for each sample. IC50 values were automatically calculated by Origin 8 using 4 Parameter Logistic Model. The percent inhibition was plotted against the compound concentration, and the IC50 value was determined from the logistic dose-response curve fitting by Origin 8.0 software.

[2] = biological target: HDAC3 (Homo sapiens (Human), UniProt O15379); experiment: HDAC inhibition assay; settings: read-out: IC50 HDAC3
Experimental: as §3

[3] = system: histone deacetylases; experiment: Rodent PET/CT imaging with [11C]CN133; format: in vivo, rats (Sprague Dawley); settings: for [11C]CN133 uptake in peripheral organs/regions of rats after treatment: peripheral organs (heart wall, kidney cortex, spleen); for blocking of [11C]CN133 uptake in rat brain after pretreatment: whole brain, 5-minute pretreatment
Experimental: Male Sprague-Dawley rats were utilized in pairs, anesthetized with inhalational isoflurane (Forane) at 3% in a carrier of 2 L/min medical oxygen and maintained at 2% isoflurane for the duration of the scan. The rats were arranged head-to-head in a Triumph Trimodality PET/CT/SPECT scanner (Gamma Medica, Northridge, Calif., USA). Rats were injected standard references or vehicle via a lateral tail vein catheterization at the start of PET acquisition. Dynamic PET acquisition lasted for 60 minutes and was followed by computed tomography (CT) for anatomic coregistration. PET data were reconstructed using a 3D-MLEM method resulting in a full width at half-maximum resolution of 1 mm. Reconstructed images were exported from the scanner in DICOM format along with an anatomic CT for rodent studies. These files were imported to PMOD (PMOD Technologies, Ltd.) and manually coregistered using six degrees of freedom.
(§1) Volumes of interest (VOIs) were drawn manually as spheres in brain regions guided by high resolution CT structural images and summed PET data, with a radius no less than 1 mm to minimize partial volume effects. Time-activity curves (TACs) were exported in terms of decay corrected activity per unit volume at specified time points with gradually increasing intervals. The TACs were expressed as percent injected dose per unit volume for analysis.

[4] = biological target: HDAC2 (Homo sapiens (Human), UniProt Q92769); experiment: HDAC inhibition assay; format: biochemical
Text: (§2) All histone deacetylases were purchased from BPS Bioscience. […] All the other reagents were purchased from Sigma-Aldrich.

[5] = system: histone deacetylases; experiment: Baboon PET/MR imaging with [11C]CN133; format: in vivo, baboon (Papio anubis); settings: for changes in vital signs: tracer dose or blocking dose; for blocking of [11C]CN133 uptake in baboon peripheral organs (time-activity curves): heart, spleen, pancreas, CN133 0.5 mg/kg 10-minute pre-treatment, SAHA infusion 5 mg/kg; for VT (Ichese MAI), Baseline / VT (Logan Plot), Baseline: [11C]CN133 distribution volume, t*=35 min to 80 min
Experimental: A female Papio Anubis baboon, deprived of food for 12 hours prior to the study, was administered intramuscular ketamine (10 mg/kg) and intubated. For maintenance of anesthesia throughout the study, the baboon was provided 1%-4% isoflurane (Forane) in a mixture of medical oxygen and nitrogen. The baboon was catheterized antecubitally for radiotracer injection and a radial arterial line was placed for metabolite analysis. MR-PET images were acquired in a BiographmMR scanner (Siemens, Munich, Germany), and PET compatible 8-channel coil arrays for non-human primate brain imaging with a PET resolution of 5 mm and field of view of 59.4 cm and 25.8 cm (transaxial and axial, respectively). Dynamic PET image acquisition was initiated followed by administration of the radiotracer in a homogenous solution of 10% ethanol and 90% isotonic saline. An […] sequence began after 30 minutes of the baseline scan for anatomic coregistration. […] Both scans were carried out in the same animal on the same day, separated by 2.5 hours. In both scans, 4-5 mCi of [^11C]CN133 was administered to the baboon. Dynamic data from the PET scans were recorded in list mode and corrected for attenuation. Baboon data were reconstructed using a 3D-OSEM method resulting in a full width at half-maximum resolution of 4 mm.
as §1, with “MR” for “CT”, “4 mm. A common VOI mask was applied” for “1 mm”, “both baboon scans.” for “minimize partial volume effects.”
Arterial samples collected during imaging from the baboon were centrifuged to obtain plasma, which was then removed and placed in an automated gamma counter that was calibrated to the PET scanner. Metabolite analysis was conducted on a custom automated robot fitted with Phenomenex SPE Strata-X 500 mg solid phase extraction cartridges that were primed with ethanol (2 mL) and deionized water (20 mL). Protein precipitation was achieved by addition of plasma (300 μL) to acetonitrile (300 μL), which was centrifuged for 1 minute to obtain protein-free plasma (PFP). 300 μL of PFP/acetonitrile solution was diluted into deionized water (3 mL), loaded onto the C18 cartridge, and removed of polar metabolites with 100% water. Next, a series of extractions were performed using water and acetonitrile in quantities: 95:5, 90:10, 85:15, 80:20, 70:30, 60:40, 30:70 and 100% acetonitrile at a volume of 4 mL. A control experiment was performed before metabolite analysis to determine the retention of the parent compound by injection of a small amount of [^11C]CN133 onto a test series of extraction cartridges. Each sample was counted in a WIZARD2 Automatic Gamma Counter to determine the presence of radiolabeled metabolites.
CN147 blocks ˜40% of [^11C]CN133 binding in NHP whole brain and in cerebellum. Plasma-normalized data were evaluated by volume of interest analysis (VOI) at the whole brain level and at level of the cerebellum. VOI data were then applied to distribution volume (VT) data analysis by two graphical methods using PMOD software, tabulated in Tables A and B below. Logan Plot and Ichese MAI methods were clarified from previous NHP imaging analyses to provide an accurate VT estimate (+/− standard error) from data beginning 35 min after injection of radiotracer (t*=35 min) until the end of the scan (t=80min).

[6] = biological target: HDAC7 (Homo sapiens (Human), UniProt Q8WUI4); experiment: HDAC inhibition assay; settings: read-out: IC50 HDAC7
Experimental: as §3

[7] = biological target: HDAC1 through HDAC9; experiment: HDAC inhibition assay, isoform panel; format: biochemical; settings: for IC50 / binding towards HDAC isoforms (in words): HDAC1, HDAC2, HDAC3 and HDAC6
Text: as §2

[8] = Log D determination; format: physicochemical; settings: octanol / phosphate buffer pH 7.4
Experimental: An aliquot (˜50 μL) of the formulated radiotracer was added to a test tube containing 2.5 mL of octanol and 2.5 mL of phosphate buffer solution (pH 7.4). The test tube was mixed by vortex for 2 minutes and then centrifuged for 2 minutes to fully separate the aqueous and organic phase. A sample taken from the octanol layer (0.1 mL) and the aqueous layer (1.0 mL) was saved for radioactivity measurement. An additional aliquot of the octanol layer (2.0 mL) was carefully transferred to a new test tube containing 0.5 mL of octanol and 2.5 mL of phosphate buffer solution (pH 7.4). The previous procedure (vortex mixing, centrifugation, sampling, and transfer to the next test tube) was repeated until six sets of aliquot samples had been prepared. The radioactivity of each sample was measured in a well counter (Perkin-Elmer, Waltham, Mass.). The log D of each set of samples was derived by the following equation: log D=log (decay-corrected radioactivity in octanol sample×10/decay-corrected radioactivity in phosphate buffer sample).

[9] = biological target: HDAC9 (Homo sapiens (Human), UniProt Q9UKV0); experiment: HDAC inhibition assay; settings: read-out: IC50 HDAC9
Experimental: as §3

[10] = Off target binding assays; settings: at 100 times its HDAC IC50
[11] = system: cell cultures; experiment: Efficacy in cell cultures; format: cell-based
[12] = biological target: HDAC8 (Homo sapiens (Human), UniProt Q9BY41); experiment: HDAC inhibition assay; format: biochemical
Text: as §2

[13] = biological target: HDAC6 (Homo sapiens (Human), UniProt Q9UBN7); experiment: HDAC inhibition assay; format: biochemical
Text: as §2

[14] = biological target: HDAC4 (Homo sapiens (Human), UniProt P56524); experiment: HDAC inhibition assay; settings: read-out: IC50 HDAC4
Experimental: as §3

[15] = biological target: HDAC5 (Homo sapiens (Human), UniProt Q9UQL6); experiment: HDAC inhibition assay; settings: read-out: IC50 HDAC5
Experimental: as §3

[16] = Plasma protein binding assay, baboon plasma; format: in vitro ADME; settings: method derives % unbound, read-out: plasma protein binding (PPB) (converted)
Experimental: An aliquot of radiotracer in saline (10 μL) was added to a sample of baboon plasma (0.8 mL, pooled from two separate animals). The mixture was gently mixed by repeated inversion and incubated for 10 minutes at room temperature. Following incubation a small sample (20 μL) was removed to determine the total radioactivity in the plasma sample (AT; AT=Abound+Aunbound). An additional 0.2 mL of the plasma sample was placed in the upper compartment of a Centrifree tube (Amicon, Inc., Beverly, Mass., USA) and then centrifuged for 10 minutes. The upper part of the Centrifree tube was discarded, and an aliquot (20 μL) from the bottom part of the tube was removed to determine the amount of radioactivity that passed through the membrane (Aunbound). Plasma protein binding was derived by the following equation: % unbound=Aunbound×100/AT.

[17] = Plasma protein binding assay, human plasma; format: in vitro ADME; settings: method derives % unbound, read-out: plasma protein binding (PPB) (converted)

HDAC1, sequence (Q13547 whole entry): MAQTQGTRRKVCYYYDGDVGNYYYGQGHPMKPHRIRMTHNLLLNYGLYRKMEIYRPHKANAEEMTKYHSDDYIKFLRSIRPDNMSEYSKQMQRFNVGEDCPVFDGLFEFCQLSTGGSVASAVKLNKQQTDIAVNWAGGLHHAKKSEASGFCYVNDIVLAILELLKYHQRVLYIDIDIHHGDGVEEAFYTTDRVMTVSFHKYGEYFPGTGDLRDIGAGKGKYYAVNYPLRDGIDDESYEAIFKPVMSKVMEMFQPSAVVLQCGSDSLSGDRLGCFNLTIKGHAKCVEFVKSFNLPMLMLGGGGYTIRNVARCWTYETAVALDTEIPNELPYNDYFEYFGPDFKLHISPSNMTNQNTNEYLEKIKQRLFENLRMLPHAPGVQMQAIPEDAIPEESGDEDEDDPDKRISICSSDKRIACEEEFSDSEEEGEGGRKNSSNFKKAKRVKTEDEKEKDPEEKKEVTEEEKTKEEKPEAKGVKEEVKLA
HDAC3, sequence (O15379 whole entry): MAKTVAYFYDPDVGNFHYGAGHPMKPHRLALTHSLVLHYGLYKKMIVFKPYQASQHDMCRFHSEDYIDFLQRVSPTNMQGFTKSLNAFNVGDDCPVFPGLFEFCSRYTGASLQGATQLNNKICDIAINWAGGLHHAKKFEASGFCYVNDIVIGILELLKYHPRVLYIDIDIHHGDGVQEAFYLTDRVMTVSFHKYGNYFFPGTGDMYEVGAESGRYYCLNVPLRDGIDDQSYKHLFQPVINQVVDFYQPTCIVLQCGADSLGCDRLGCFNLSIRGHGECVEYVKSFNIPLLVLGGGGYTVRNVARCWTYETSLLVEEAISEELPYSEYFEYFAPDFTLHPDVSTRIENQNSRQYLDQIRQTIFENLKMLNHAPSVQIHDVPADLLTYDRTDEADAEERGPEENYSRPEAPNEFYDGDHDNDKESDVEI
HDAC3, sequence (Q9Y618 395-489 partner): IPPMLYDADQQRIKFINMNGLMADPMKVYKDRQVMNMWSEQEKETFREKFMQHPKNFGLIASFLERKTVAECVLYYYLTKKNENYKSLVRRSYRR
HDAC2, sequence (Q92769 whole entry): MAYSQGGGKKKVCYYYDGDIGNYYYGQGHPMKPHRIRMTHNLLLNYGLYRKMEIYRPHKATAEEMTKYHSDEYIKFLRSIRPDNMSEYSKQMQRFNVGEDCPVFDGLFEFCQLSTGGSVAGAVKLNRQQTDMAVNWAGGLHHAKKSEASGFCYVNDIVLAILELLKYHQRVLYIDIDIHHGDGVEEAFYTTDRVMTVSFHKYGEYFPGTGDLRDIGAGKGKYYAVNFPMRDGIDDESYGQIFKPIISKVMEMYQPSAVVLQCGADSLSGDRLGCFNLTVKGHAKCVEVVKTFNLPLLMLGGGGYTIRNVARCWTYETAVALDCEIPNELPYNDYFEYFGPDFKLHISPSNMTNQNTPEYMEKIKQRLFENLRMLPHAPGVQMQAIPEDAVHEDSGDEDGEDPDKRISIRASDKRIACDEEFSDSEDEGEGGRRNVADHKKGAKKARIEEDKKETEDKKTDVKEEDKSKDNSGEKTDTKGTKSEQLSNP
HDAC8, sequence (Q9BY41 whole entry): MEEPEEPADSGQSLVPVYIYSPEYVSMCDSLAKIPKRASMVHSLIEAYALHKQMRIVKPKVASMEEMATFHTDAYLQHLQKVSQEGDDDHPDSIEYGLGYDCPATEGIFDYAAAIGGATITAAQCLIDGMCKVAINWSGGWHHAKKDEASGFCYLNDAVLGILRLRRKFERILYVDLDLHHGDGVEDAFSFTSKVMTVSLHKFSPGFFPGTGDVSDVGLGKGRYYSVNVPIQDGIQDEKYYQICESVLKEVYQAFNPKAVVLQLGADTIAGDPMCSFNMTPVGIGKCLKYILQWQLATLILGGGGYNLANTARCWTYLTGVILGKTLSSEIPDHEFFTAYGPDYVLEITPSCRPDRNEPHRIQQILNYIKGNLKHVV
HDAC9, sequence (Q9UKV0 whole entry): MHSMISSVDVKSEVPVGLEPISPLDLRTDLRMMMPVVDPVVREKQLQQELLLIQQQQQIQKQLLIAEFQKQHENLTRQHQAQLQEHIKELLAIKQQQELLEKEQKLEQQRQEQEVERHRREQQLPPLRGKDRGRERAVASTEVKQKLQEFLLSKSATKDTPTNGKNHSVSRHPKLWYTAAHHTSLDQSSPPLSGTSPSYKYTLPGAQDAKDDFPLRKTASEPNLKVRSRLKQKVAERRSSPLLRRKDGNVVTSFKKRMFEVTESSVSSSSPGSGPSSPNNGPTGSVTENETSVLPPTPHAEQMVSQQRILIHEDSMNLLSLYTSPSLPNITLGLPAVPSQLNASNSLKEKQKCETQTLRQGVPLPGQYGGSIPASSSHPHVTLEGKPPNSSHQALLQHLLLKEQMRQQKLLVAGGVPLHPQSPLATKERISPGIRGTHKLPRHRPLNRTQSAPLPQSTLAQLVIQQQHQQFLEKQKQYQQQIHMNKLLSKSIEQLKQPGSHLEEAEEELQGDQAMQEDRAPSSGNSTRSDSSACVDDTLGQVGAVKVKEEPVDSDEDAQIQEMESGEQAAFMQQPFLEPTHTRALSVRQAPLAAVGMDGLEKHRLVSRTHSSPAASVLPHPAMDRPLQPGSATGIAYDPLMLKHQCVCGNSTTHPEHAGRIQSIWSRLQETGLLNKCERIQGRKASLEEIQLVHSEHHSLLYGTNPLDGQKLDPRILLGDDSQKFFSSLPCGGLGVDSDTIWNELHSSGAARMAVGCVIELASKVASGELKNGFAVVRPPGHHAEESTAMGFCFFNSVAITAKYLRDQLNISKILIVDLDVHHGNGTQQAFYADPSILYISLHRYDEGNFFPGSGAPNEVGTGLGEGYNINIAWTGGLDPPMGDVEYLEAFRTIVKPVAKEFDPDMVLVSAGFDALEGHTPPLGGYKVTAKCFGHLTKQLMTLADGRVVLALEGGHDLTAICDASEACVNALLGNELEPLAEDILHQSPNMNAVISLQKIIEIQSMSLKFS
HDAC5, sequence (Q9UQL6 whole entry): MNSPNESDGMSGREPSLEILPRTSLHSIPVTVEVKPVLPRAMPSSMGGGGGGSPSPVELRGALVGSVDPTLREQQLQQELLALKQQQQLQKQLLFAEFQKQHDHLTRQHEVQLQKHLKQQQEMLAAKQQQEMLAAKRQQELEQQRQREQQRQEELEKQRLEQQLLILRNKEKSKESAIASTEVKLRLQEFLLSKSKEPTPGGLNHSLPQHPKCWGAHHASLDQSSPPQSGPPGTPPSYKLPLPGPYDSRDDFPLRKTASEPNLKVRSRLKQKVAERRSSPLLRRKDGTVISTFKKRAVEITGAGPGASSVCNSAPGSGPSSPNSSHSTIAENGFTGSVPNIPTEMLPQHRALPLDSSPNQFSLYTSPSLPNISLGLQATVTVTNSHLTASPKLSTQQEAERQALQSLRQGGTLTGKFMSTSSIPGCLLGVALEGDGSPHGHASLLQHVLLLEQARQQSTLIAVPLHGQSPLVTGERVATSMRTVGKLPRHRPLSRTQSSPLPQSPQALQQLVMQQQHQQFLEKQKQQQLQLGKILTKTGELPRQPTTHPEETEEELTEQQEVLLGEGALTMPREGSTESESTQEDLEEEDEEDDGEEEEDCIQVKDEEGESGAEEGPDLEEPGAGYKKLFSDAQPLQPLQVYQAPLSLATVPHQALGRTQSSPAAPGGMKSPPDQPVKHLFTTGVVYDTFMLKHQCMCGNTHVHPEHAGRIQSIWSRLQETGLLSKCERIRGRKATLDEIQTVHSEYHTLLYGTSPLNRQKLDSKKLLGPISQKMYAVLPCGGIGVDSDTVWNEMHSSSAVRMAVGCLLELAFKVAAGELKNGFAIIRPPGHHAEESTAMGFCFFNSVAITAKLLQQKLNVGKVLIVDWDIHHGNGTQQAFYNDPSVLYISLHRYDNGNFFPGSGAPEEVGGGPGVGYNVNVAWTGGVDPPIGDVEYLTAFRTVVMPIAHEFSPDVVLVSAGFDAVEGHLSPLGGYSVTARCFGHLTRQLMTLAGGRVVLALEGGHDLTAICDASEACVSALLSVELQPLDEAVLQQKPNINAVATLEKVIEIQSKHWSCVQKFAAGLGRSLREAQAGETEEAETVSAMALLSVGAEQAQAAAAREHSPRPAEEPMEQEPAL
HDAC7, sequence (Q8WUI4 whole entry, canonical isoform): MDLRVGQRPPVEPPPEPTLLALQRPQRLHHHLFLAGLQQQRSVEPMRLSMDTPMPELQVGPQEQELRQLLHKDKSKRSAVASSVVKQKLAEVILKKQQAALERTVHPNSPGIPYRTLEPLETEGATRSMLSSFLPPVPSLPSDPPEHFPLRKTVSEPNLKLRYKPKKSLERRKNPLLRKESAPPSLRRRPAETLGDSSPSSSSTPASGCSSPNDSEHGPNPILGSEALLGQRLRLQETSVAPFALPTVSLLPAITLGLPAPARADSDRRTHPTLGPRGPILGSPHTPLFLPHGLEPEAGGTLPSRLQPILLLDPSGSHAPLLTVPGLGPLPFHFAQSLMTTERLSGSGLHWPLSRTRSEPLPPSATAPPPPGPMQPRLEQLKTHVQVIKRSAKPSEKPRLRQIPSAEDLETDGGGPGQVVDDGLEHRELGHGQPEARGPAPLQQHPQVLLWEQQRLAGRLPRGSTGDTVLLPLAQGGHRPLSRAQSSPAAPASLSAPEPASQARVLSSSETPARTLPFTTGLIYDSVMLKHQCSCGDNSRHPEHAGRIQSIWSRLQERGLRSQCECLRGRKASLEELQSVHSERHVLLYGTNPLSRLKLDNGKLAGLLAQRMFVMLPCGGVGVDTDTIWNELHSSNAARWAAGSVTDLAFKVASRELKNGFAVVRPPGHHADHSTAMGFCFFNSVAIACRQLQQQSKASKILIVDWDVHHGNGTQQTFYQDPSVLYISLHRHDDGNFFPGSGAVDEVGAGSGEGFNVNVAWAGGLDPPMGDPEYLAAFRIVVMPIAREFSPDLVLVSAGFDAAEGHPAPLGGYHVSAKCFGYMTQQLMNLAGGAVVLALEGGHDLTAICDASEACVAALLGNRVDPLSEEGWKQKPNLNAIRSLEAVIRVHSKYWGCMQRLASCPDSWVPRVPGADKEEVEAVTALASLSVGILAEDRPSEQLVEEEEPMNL

O=C(NO)c1ccc(C2=Nc3ccccc3Oc3ccccc32)cc1 [CN54]
IC50 [1]: 56.1 nM | IC50 [2]: 7.1 nM | [11C]CN133 uptake in peripheral organs/regions of rats after treatment [3]: decreased uptake | blocking of [11C]CN133 uptake in rat brain after pretreatment [3]: blocked; also recorded: activity blocking | IC50 [4]: 53.7 nM

CN(Cc1ccc(/C=C/C(=O)NO)cc1)CC12CC3CC(CC(C3)C1)C2 [CN133, (E)-3-(4-((((3r,5r,7r)-adamantan-1-ylmethyl)(methyl)amino)methyl)phenyl)-N-hydroxyacrylamide]
changes in vital signs ([5]; baboon): did not notice any significant changes | blocking of [11C]CN133 uptake in baboon peripheral organs (time-activity curves) ([5]; kidney): significant blocking | blocking of [11C]CN133 uptake in baboon brain ([5]; intravenous, CN133 0.01-1.0 mg/kg, CN147 0.5 mg/kg): reduced the regional radioactivity uptake | IC50 [6]: > 20000 nM | IC50 [1]: 0.3 nM | IC50 / binding towards HDAC isoforms (in words) [7]: low nanomolar; also recorded: sub-nanomolar | selectivity over each of the other HDAC isoforms ([7]; HDAC1-3 and HDAC6 versus other isoforms): greater than 100 fold | IC50 [2]: 0.6 nM | partition coefficient (Log D) [8]: 2.03 | P-glycoprotein interaction (CsA pretreatment study) ([3]; 30-minute pretreatment of CsA 25 mg/kg): not a Pgp inhibitor | reversibility of binding ([3]; CN133 1.0 mg/kg i.v. 20 minutes into baseline scan with [11C]CN133): reversible inhibitor; also recorded: rapid washout of radioactivity from brain regions | [11C]CN133 uptake in peripheral organs/regions of rats after treatment [3]: decreased | IC50 [9]: > 15000 nM | off target binding [10]: minimal (if any) off target binding | efficacy in cell cultures [11]: sub-nanomolar | IC50 [12]: > 15000 nM | IC50 [13]: 4.1 nM | IC50 [14]: 1970 nM | IC50 [15]: 352 nM

O=C(CCCCCCC(=O)Nc1ccccc1)NO [SAHA, suberanilohydroxamic acid, reference compound]
blocking of [11C]CN133 uptake in baboon peripheral organs (time-activity curves) ([5]; kidney): significant blocking | [11C]CN133 uptake in peripheral organs/regions of rats after treatment [3]: decreased uptake | blocking of [11C]CN133 uptake in rat brain after pretreatment [3]: no significant change; also recorded: did not block the brain uptake

[11CH3]N(Cc1ccc(/C=C/C(=O)NO)cc1)CC12CC3CCC(CC(C3)C1)C2 [[11C]CN133]
VT (Ichese MAI), Baseline ([5]; Cerebellum VOI): 19.45 ± 7.5 | VT (Logan Plot), Baseline ([5]; Cerebellum VOI): 19.28 ± 3.18 | VT (Ichese MAI), Baseline ([5]; Whole Brain VOI): 14.65 ± 8.48 | VT (Logan Plot), Baseline ([5]; Whole Brain VOI): 14.46 ± 3.83 | time of peak radioactivity in the brain after injection ([5]; baboon): about 1 minute | tracer uptake in peripheral organs ([5]; baboon heart, kidney, pancreas and spleen): good uptake | changes in vital signs ([5]; baboon): did not notice any significant changes | fraction unbound at 10 min [16]: 0.986 | IC50 / binding towards HDAC isoforms (in words) [7]: sub-nanomolar | logD ([8]; read-out: partition coefficient (Log D)): 2.03 | BBB penetration ([3]; rats, intravenous, 60 minutes scan): high BBB penetration | blocking of [11C]CN133 uptake in rat brain after pretreatment [3]: dose-dependent blocking | fraction unbound at 10 min [17]: 0.945
